According to patent publication US20260085053A1, “BENZOFURAN DERIVATIVES AS SIK INHIBITORS AND THE USE THEREOF” (BEONE MEDICINES I GMBH, priority 2023, published 2026):

What was measured:
[1] = biological target: T1, SIK1 kinase (aa1-303, Thermo Fisher) (Homo sapiens, UniProt P57059); test: Biochemical activities determination for SIK1 protein (TR-FRET); conditions: 110 uM ATP, 0.5 μM STK1 substrate
T1 construct: SIK1 kinase (aa1-303, Thermo Fisher); purchased Thermo Fisher
Procedure, shortened: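 TR-FRET kinase assay with SIK1 (aa1-303), 110 uM ATP, 0.5 μM STK1 substrate and 0-10 μM compound in Tris pH 7.5 with MgCl2, EGTA, DTT, Triton X-100. Enzyme preincubated with compound 60 min, reaction 180 min at room temperature; 665/620 nm ratio after overnight detection; IC50 from four-parameter logistic fit.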

[2] = biological target: T2, SIK2 kinase (full length, Thermo Fisher) (Homo sapiens, UniProt Q9H0K1); test: Biochemical activities determination for SIK2 protein (TR-FRET); conditions: 80 uM ATP, 0.5 μM substrate
T2 construct: SIK2 kinase (full length, Thermo Fisher); purchased Thermo Fisher
Procedure, shortened: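 Full-length SIK2 preincubated 60 min with 0–10 μM compound, then reacted 180 min at room temperature with 80 uM ATP and 0.5 μM biotinylated substrate (pH 7.5 Tris/MgCl2 buffer). Phosphorylation detected by TR-FRET (665/620 nm ratio, cryptate antibody/streptavidin-XL665) after overnight incubation; IC50 from four-parameter logistic fit.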

[3] = biological target: T3, SIK3 kinase (aa59-365, Thermo Fisher) (Homo sapiens, UniProt Q9Y2K2); test: Biochemical activities determination for SIK3 protein (TR-FRET); conditions: 125 uM ATP, 0.5 μM STK1 substrate
T3 construct: SIK3 kinase (aa59-365, Thermo Fisher); purchased Thermo Fisher
Procedure, shortened: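 SIK3 (aa59-365) was preincubated with compound (0-10 μM) for 60 min at room temperature in Tris buffer pH 7.5. The reaction was then started with 125 uM ATP and 0.5 μM STK1 substrate and run 180 min at room temperature. Phospho-substrate was detected by HTRF (665/620 nm ratio), and IC50 came from a four-parameter logistic fit.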

T2 sequence (Q9H0K1 whole entry): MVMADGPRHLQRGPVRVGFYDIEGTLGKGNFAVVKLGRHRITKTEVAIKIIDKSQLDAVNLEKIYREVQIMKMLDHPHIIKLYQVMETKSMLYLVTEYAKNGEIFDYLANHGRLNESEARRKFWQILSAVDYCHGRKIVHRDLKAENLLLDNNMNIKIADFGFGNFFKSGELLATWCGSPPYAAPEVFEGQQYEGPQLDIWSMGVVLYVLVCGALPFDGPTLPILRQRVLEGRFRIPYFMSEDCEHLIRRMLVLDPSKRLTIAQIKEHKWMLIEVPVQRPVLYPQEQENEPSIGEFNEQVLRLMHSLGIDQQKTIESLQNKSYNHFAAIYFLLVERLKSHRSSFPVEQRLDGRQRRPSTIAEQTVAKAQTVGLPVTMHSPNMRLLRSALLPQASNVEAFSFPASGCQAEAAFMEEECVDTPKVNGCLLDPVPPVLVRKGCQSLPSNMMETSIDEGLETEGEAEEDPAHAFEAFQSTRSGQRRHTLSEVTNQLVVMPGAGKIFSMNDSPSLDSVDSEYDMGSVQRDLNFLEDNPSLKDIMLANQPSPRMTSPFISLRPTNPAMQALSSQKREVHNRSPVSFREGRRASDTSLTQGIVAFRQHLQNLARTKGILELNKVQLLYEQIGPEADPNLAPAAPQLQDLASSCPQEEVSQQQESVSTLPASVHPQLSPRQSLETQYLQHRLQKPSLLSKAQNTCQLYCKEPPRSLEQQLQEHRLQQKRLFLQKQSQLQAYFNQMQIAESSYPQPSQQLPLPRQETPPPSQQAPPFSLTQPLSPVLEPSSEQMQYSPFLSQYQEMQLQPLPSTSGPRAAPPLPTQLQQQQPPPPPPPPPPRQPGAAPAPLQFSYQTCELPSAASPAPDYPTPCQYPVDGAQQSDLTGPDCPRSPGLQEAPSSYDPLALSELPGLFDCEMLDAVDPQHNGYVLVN
T1 sequence (P57059 1-303): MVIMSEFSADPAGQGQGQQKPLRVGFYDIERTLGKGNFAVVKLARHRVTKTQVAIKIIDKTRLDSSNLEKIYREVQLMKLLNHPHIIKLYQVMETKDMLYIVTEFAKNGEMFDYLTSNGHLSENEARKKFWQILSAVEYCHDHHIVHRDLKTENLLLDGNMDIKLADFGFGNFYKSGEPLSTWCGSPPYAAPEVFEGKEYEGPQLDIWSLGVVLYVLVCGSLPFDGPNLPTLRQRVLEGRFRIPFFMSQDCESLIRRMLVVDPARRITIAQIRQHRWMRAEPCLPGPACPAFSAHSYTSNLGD
T3 sequence (Q9Y2K2 59-365): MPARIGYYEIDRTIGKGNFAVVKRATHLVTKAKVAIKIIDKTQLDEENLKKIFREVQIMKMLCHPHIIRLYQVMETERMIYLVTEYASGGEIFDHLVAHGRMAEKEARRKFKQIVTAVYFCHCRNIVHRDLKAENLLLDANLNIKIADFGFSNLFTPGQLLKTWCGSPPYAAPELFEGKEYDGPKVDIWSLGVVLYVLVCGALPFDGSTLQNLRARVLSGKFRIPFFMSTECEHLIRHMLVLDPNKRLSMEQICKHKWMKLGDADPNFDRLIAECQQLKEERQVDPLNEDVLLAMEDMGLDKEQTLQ

IC50 [1] [nM]	IC50 [2] [nM]	IC50 [3] [nM]	SMILES
4580	52	211	O=C(NC1CC1)c1c(NCCO)cc(-c2coc3cc(OCCN4CCCC4)ccc23)cc1OC(F)F [Compound 104, N-cyclopropyl-2-(difluoromethoxy)-6-((2-hydroxyethyl)amino)-4-(6-(2-(pyrrolidin-1-yl)ethoxy)benzofuran-3-yl)benzamide]
3130	80	132	COc1cc(-c2coc3cc(-c4cn(C)nc4OC)ccc23)cc2c1C(=O)N(CC(F)(F)F)CC2 [Compound 19, 8-methoxy-6-(6-(3-methoxy-1-methyl-1H-pyrazol-4-yl)benzofuran-3-yl)-2-(2,2,2-trifluoroethyl)-3,4-dihydroisoquinolin-1 (2H)-one]
> 10000	7320	> 10000	CN1CCC[C@H]1COc1cc(-c2coc3cc(OCCN4CCCC4)ccc23)cc(OC(F)F)c1C(=O)NC1CC1 [Compound 113, (S)—N-cyclopropyl-2-(difluoromethoxy)-6-((1-methylpyrrolidin-2-yl)methoxy)-4-(6-(2-(pyrrolidin-1-yl)ethoxy)benzofuran-3-yl)benzamide]
